Data taken from patent US20250243427A1, “PRECURSORS OF PHENOLIC FRAGRANT COMPOUNDS” (GIVAUDAN SA, priority 2021, published 2025).

Tests used:
[1] = Odor description on paper blotter; conditions: 1% solution in EtOH on paper blotter, 24 h
[2] = Washtest and sensory evaluation of fabric washed with liquid detergent; conditions: liquid detergent washtest; for odour intensity, wet: Table 2 (position of double bond), wet fabric, scale 0 (odorless) to 5 (extremely strong); for odour intensity, 1 day / odour intensity, 4 days: Table 2, scale 0 to 5; for odour intensity, 1 day: dry fabric 1 day; for odour intensity, 4 days: dry fabric 4 days
Protocol: The wet and line-dried fabric (1 and 4 days) was assessed by a panel of 4-6 experts with regard to odor intensity and quality. The odor intensity was recorded on an intensity scale of 0 (odorless) to 5 (extremely strong).
The odour intensity was recorded on an intensity scale of 0 (odorless) to 5 (extremely strong).
Liquid detergent samples were prepared and used in washtests and subsequent sensory evaluation of the washed and dried fabric as described in Example 45a and c. The odor intensity was recorded on an intensity scale of 0 (odorless) to 5 (extremely strong).

Row | Compound | Odor description [1] | also measured
1 | CC/C=C\CCOc1ccc(COCC)cc1OCC [Example 48, (Z)-2-ethoxy-4-(ethoxymethyl)-1-(hex-3-en-1-yloxy)benzene] | spicy (eugenol, smokey), powdery (vanilla) | –
2 | C=CCC(CC=C)Oc1ccc(CCC(C)=O)cc1 [Example 23, 4-(4-(hepta-1,6-dien-4-yloxy)phenyl)butan-2-one] | fruity (raspberry) | –
3 | CC/C=C/CCOc1ccc(C=O)cc1OCC [Example 2, (E)-3-ethoxy-4-(hex-3-en-1-yloxy)benzaldehyde] | powdery (vanilla, creamy) slightly fruity (raspberry, strawberry) | –
4 | C=CCC(C=C(C)C)Oc1ccc(CCC(C)=O)cc1 (stereo not drawn) [Example 27, 4-(4-((6-methylhepta-1,5-dien-4-yl)oxy)phenyl)butan-2-one] | fruity (powdery, sweet, raspberry) | –
5 | C=CCC(CCC)Oc1ccc(CCC(C)=O)cc1 (stereo not drawn) [Example 21, 4-(4-(hept-1-en-4-yloxy)phenyl)butan-2-one] | raspberry | –
6 | CC/C=C\CCOc1cc(C)cc(OC)c1 [Example 41, (Z)-1-(hex-3-en-1-yloxy)-3-methoxy-5-methylbenzene] | green, bell pepper | –
7 | C=CCC(Oc1ccc(C=O)cc1OCC)C(=O)OCC (stereo not drawn) [Example 61, ethyl 2-(2-ethoxy-4-formylphenoxy)pent-4-enoate] | sweet powdery gourmand (vanilla, coffee) creamy (vanilla, milky) | –
8 | C=CCCCOc1ccc(C=O)cc1OCC [Example 53, 3-ethoxy-4-(pent-4-en-1-yloxy)benzaldehyde, reference compound] | – | odour intensity, wet [2]: 1.5; odour intensity, 1 day [2]: 1.3; odour intensity, 4 days [2]: 1.2
9 | CC/C=C\CCOc1ccc(COC(C)C)cc1OCC [Example 50, (Z)-2-ethoxy-1-(hex-3-en-1-yloxy)-4-(isopropoxymethyl)benzene] | spicy (eugenol, smokey), powdery (vanilla), green | –
10 | CCOc1cc(C=O)ccc1OCCC=C(C)CC [Example 40, 3-ethoxy-4-((4-methylhex-3-en-1-yl)oxy)benzaldehyde] | powdery, vanilla, creamy, chocolate, slightly butyric | –
11 | CCCC(C)=CCCOc1ccc(C=O)cc1OC [Example 38, 3-methoxy-4-((4-methylhept-3-en-1-yl)oxy)benzaldehyde] | powdery, vanilla, chocolate | –
12 | CC/C=C\CC(C)Oc1ccc(C=O)cc1OCC (stereo not drawn) [Example 4, (Z)-3-ethoxy-4-(hept-4-en-2-yloxy)benzaldehyde] | sweet (brown sugar) powdery (vanillin, chocolate, ice cream) | –
13 | CCOc1cc(C=O)ccc1OCCC=CCC(C)C [Example 31, 3-ethoxy-4-((6-methylhept-3-en-1-yl)oxy)benzaldehyde] | powdery, vanilla, green, hazelnut, chocolate | –
14 | CCOc1cc(C=O)ccc1OC1CC=CCC1 (stereo not drawn) [Example 51, 4-(cyclohex-3-en-1-yloxy)-3-ethoxybenzaldehyde] | powdery (vanilla) | –
15 | C=CCC(C=C(C)C)Oc1ccc(C=O)cc1OCC (stereo not drawn) [Example 24, 3-ethoxy-4-((6-methylhepta-1,5-dien-4-yl)oxy)benzaldehyde] | powdery (creamy, vanilla) | –
16 | C=CCC(CC=C)Oc1ccc(C=O)cc1OCC [Example 22, 3-ethoxy-4-(hepta-1,6-dien-4-yloxy)benzaldehyde] | powdery (creamy, vanilla) | –
17 | C=CCC(CC)Oc1ccc(CCC(C)=O)cc1 (stereo not drawn) [Example 25, 4-(4-(hex-5-en-3-yloxy)phenyl)butan-2-one] | sweet (icing sugar cristal) raspberry | –
18 | C=CCCOc1ccc(CC=C)cc1OC [Example 13, 4-allyl-1-(but-3-en-1-yloxy)-2-methoxybenzene] | slightly spicy (iso eugenol) fruity (berry) | –
19 | COC(=O)c1c(C)cc(OCCC=C(C)C)c(C)c1O [Example 62, methyl 2-hydroxy-3,6-dimethyl-4-((4-methylpent-3-en-1-yl)oxy)benzoate] | mossy (evernyl) | –
20 | CC/C=C\CCOc1ccc(COC)cc1OCC [Example 49, (Z)-2-ethoxy-1-(hex-3-en-1-yloxy)-4-(methoxymethyl)benzene] | spicy (eugenol, smokey), powdery (vanilla) | –
21 | CCC=CCCOc1cc(C)ccc1C(C)C [Example 30, 2-(hex-3-en-1-yloxy)-1-isopropyl-4-methylbenzene] | aromatic, thymol, menthol | –
22 | CCC/C=C/COc1ccc(C=O)cc1OCC [Example 54, (E)-3-ethoxy-4-(hex-2-en-1-yloxy)benzaldehyde, reference compound] | – | odour intensity, wet [2]: 1.2; odour intensity, 1 day [2]: 1.8; odour intensity, 4 days [2]: 1.4
23 | COc1cc(C=O)ccc1OCCC=C(C)C [Example 37, 3-methoxy-4-((4-methylpent-3-en-1-yl)oxy)benzaldehyde] | powdery, vanilla, creamy | –
24 | CCOc1cc(C=O)ccc1OCCC=CC(=O)OC [Example 60, methyl 5-(2-ethoxy-4-formylphenoxy)pent-2-enoate] | sweet powdery gourmand, vanilla, coffee, creamy, vanilla, milky | –

Row | Compound | Odor description [1] | also measured
25 | CC/C=C\CC(C)Oc1ccc(CCC(C)=O)cc1 (stereo not drawn) [Example 5, (Z)-4-(4-(hept-4-en-2-yloxy)phenyl)butan-2-one] | raspberry (fruity, ripe, fresh) | –
26 | CCOc1cc(C=O)ccc1OCCC=CCCOc1ccc(C=O)cc1OCC [Example 52, 4,4′-(hex-3-ene-1,6-diylbis(oxy))bis(3-ethoxybenzaldehyde)] | powdery (vanilla) | –
27 | CC(C)=CCCOc1ccc(C)cc1 [Example 44, 1-methyl-4-((4-methylpent-3-en-1-yl)oxy)benzene] | animalic, leathery, phenolic, paracresol | –
28 | CC/C=C\CCOc1ccc(C=NOC)cc1OCC [Example 47, 3-ethoxy-4-(((Z)-hex-3-en-1-yl)oxy)benzaldehyde O-methyl oxime] | vanilla (sweet, gourmand, carnation floral, chestnut cream) | –
29 | CCc1ccc(OCCC=C(C)C)cc1 [Example 42, 1-ethyl-4-((4-methylpent-3-en-1-yl)oxy)benzene] | animalic, leathery, phenolic, paracresol | –
30 | CC/C=C\CCOc1ccccc1C(=O)CC [Example 46, (Z)-1-(2-(hex-3-en-1-yloxy)phenyl)propan-1-one] | green, wintergreen | –
31 | C=CCC(CCC)Oc1ccc(C=O)cc1OCC (stereo not drawn) [Example 19, 3-ethoxy-4-(hept-1-en-4-yloxy)benzaldehyde] | powdery (dry, vanilla) fruity (metallic) | –
32 | C=C(C)CCOc1ccc(CCC(C)=O)cc1 [Example 16, 4-(4-((3-methylbut-3-en-1-yl)oxy)phenyl)butan-2-one] | fruity (raspberry) sweet | –
33 | 3-ethoxy-4-((4-methylhepta-3,6-dien-1-yl)oxy)benzaldehyde and 3-ethoxy-4-((4-methylhepta-3,5-dien-1-yl)oxy)benzaldehyde [Example 29] | powdery (vanilla) sweet (sugary) | –
34 | CC=CCCOc1cc(C)c(C(=O)OC)c(O)c1C [Example 63, methyl 2-hydroxy-3,6-dimethyl-4-(pent-3-en-1-yloxy)benzoate] | mossy, evernyl, dry powdery | –
35 | C=CCCOc1cc(C)c(C(=O)OC)c(O)c1C [Example 14, methyl 4-(but-3-en-1-yloxy)-2-hydroxy-3,6-dimethylbenzoate] | slightly mossy | –
36 | (Z)-2-ethoxy-1-(hex-3-en-1-yloxy)-4-methylbenzene and (Z)-1-ethoxy-2-(hex-3-en-1-yloxy)-4-methylbenzene [Example 35] | spicy, eugenol, clove, phenolic, vanilla, medicinal | –
37 | C=CCC(C=CC)Oc1ccc(CCC(C)=O)cc1 (stereo not drawn) [Example 26, 4-(4-(hepta-1,5-dien-4-yloxy)phenyl)butan-2-one] | sweet (icing sugar cristal) raspberry | –
38 | C=CCC(C)(C)Oc1ccc(C=O)cc1OCC [Example 28, 3-ethoxy-4-((2-methylpent-4-en-2-yl)oxy)benzaldehyde] | powdery (vanilla) | –
39 | CC/C=C/CCOc1ccc(CCC(C)=O)cc1 [Example 7, (E)-4-(4-(hex-3-en-1-yloxy)phenyl)butan-2-one] | raspberry | –
40 | C=CCCOc1ccc(C=O)cc1OCC [Example 12, 4-(but-3-en-1-yloxy)-3-ethoxybenzaldehyde] | powdery (vanilla, creamy, dough) | –
41 | COc1cc(C)cc(OCCC=C(C)C)c1 [Example 43, 1-methoxy-3-methyl-5-((4-methylpent-3-en-1-yl)oxy)benzene] | animalic, leathery, phenolic, paracresol, green, hay, rooty | –
42 | CCC(C)=CCCOc1ccc(CCC(C)=O)cc1 [Example 36, 4-(4-((4-methylhex-3-en-1-yl)oxy)phenyl)butan-2-one] | fruity, raspberry, sweet, powdery | –
43 | CCCC/C=C\CCOc1ccc(C=O)cc1OCC [Example 17, (Z)-3-ethoxy-4-(oct-3-en-1-yloxy)benzaldehyde] | vanilla (powdery, spicy, creamy) | –
44 | CCOc1cc(C=O)ccc1OCC/C=C/C(C)C [Example 32, (E)-3-ethoxy-4-((5-methylhex-3-en-1-yl)oxy)benzaldehyde] | powdery, vanilla, green, hazelnut, chocolate | –
45 | CC/C=C\CCOc1ccccc1OCC [Example 39, (Z)-1-ethoxy-2-(hex-3-en-1-yloxy)benzene] | medicinal, phenolic, vanilla | –
46 | C=C(C)CCOc1ccc(C=O)cc1OCC [Example 15, 3-ethoxy-4-((3-methylbut-3-en-1-yl)oxy)benzaldehyde] | mild, powdery, spicy | –
47 | CCCc1cccc(OCCC=C(C)C)c1 [Example 45, 1-((4-methylpent-3-en-1-yl)oxy)-3-propylbenzene] | animalic, leathery, phenolic, paracresol, green, hay, rooty | –
